In patent publication US8835657B2, “Cyclopentanedione compounds and their use as insecticides, acaricides and/or fungicides” (Bayer CropScience AG, priority 2009, dated 2014):
Where two headings read alike, the source gives them in different places.

Tests used:
Type in all cases: in vivo
[1] = system: mustard beetle larvae (Phaedon cochleariae); experiment: Phaedon cochleariae test (PHAECO spray application); conditions: foliar, 168 h, spray on Chinese cabbage leaf disks, after 7 days, read-out: Efficacy % (mortality)
Experimental: Test; (PHAECO Spray Application)
• Solvent: 78.0 parts by weight of acetone • 1.5 parts by weight of dimethylformamide • Emulsifier: 0.5 parts by weight of alkylaryl polyglycolether
To produce a suitable preparation of active compound, 1 part by weight of active compound is mixed with the stated amount of solvent and emulsifier, and the concentrate is diluted with emulsifier-containing water to the desired concentration. Chinese cabbage (Brassica pekinesis) leaf-disks are sprayed with a preparation of the active ingredient of the desired concentration. Once dry, the leaf disks are infested with mustard beetle larvae (Phaedon cochleariae).
After 7 days mortality in % is determined. 100% means that all beetle larvae have been killed and 0% means that none of the beetle larvae have been killed.

[2] = system: fall armyworm larvae (Spodoptera frugiperda); experiment: Spodoptera frugiperda test (SPODFR spray application); conditions: 168 h, spray on maize leaf sections, after 7 days, read-out: Efficacy % (mortality)
Source text: Test (SPODFR Spray Application)
(§1) • Solvent: 78.0 parts by weight acetone • 1.5 parts by weight dimethylformamide • Emulsifier: 0.5 parts by weight alkylarylpolyglycolether
To produce a suitable preparation of the active compound, 1 part by weight of active compound is mixed with the stated amount of solvent and emulsifier, and the concentrate is dilutes with emulsifier-containing water to the desired concentration. Maize (Zea mais) leaf sections are sprayed with a preparation of the active ingredient of the desired concentration. Once dry, the leaf sections are infested with fall armyworm larvae (Spodoptera frugiperda).
After 7 days mortality in % is determined. 100% means that all caterpillars have been killed and 0% means that none of the caterpillars have been killed.

[3] = system: green peach aphid (Myzus persicae); experiment: Myzus persicae test (MYZUPE spray application); conditions: foliar, 144 h, spray on Chinese cabbage leaf disks, after 6 days, read-out: Efficacy % (mortality)
Experimental: Test; (MYZUPE Spray Application)
as §1
(§2) To produce a suitable preparation of active compound, 1 part by weight of active compound is mixed with the stated amount of solvent and emulsifier, and the concentrate is diluted with emulsifier-containing water to the desired concentration. Chinese cabbage (Brassica pekinesis) leaf-disks infected with all instars of the green peach aphid (Myzus persicae), are sprayed with a preparation of the active ingredient at the desired concentration.
After 6 days mortality in % is determined. 100% means that all aphids have been killed; 0% means that none of the aphids have been killed.

[4] = system: two spotted spidermite (Tetranychus urticae); experiment: Tetranychus urticae test; OP-resistant (TETRUR spray application); conditions: 144 h, read-out: Efficacy % (mortality)
Experimental: Test; OP-Resistant (TETRUR Spray Application)
as §1
as §2, with “French beans (Phaseolus vulgaris) which are heavily infested” for “Chinese cabbage (Brassica pekinesis) leaf-disks infected”, “stages” for “instars”, “two spotted spidermite (Tetranychus urticae),” for “green peach aphid (Myzus persicae),”
After 6 days mortality in % is determined. 100% means that all spider mites have been killed and 0% means that none of the spider mites have been killed.

Meloidogyne incognita = experiment: Meloidogyne test (MELGIN); conditions: 20 ppm, sand with salad seeds, after 14 days
Experimental: Meloidogyne Test (MELGIN)
• Solvent: 80.0 parts by weight of acetone
To produce a suitable preparation of active compound, 1 part by weight of active compound is mixed with the stated amount of solvent, and the concentrate is diluted with emulsifier-containing water to the desired concentration.
Vessels are filled with sand, a solution of the active ingredient, a suspension containing eggs and larvae of Meloidogyne incognita and salad seeds. The salade seeds germinate and the seedlings grow. Galls develop in the roots.
After 14 days the nematicidal activity is determined on the basis of the percentage of gall formation. 100% means that no galls were found; 0% means that the number of galls found on the roots of the treated plants was equal to that in untreated control plants.

## CCOC(=O)OC1=C(c2cc(-c3ccc(Cl)cc3)ccc2C)C(=O)C2C3CCC(O3)C12 (stereo not drawn) [Ex No. P 12]
[1]; 500 g/ha
  mortality at 500 g/ha: 83%
[2]
  mortality at 500 g/ha: 100%
[3]
  mortality at 500 g/ha: 90%
[4]
  mortality at 500 g/ha: 100%

## Cc1ccc(-c2ccc(Cl)cc2)cc1C1=C(O)[C@H]2[C@@H](C1=O)[C@@H]1CC[C@H]2O1 [Ex No. T 1]
[1]; 100 g/ha
  mortality at 100 g/ha: 83%
[2]
  mortality at 500 g/ha: 100%
[3]
  mortality at 500 g/ha: 90%
Meloidogyne incognita
  Efficacy % (nematicidal activity, gall formation): 100%
[4]; TETRUR, OP-resistant, 500 g/ha, spray on French beans, after 6 days
  mortality at 500 g/ha: 100%
